{
  "source": "paper PMC7570910",
  "about": "“8-Hydroxyquinoline Glycoconjugates Containing Sulfur at the Sugar Anomeric Position—Synthesis and Preliminary Evaluation of Their Cytotoxicity” (Molecules, 2020)",
  "key": {"MCF-7 cells": {"test_system": "MCF-7 cells", "assay": "MTT cytotoxicity assay, MCF-7", "assay_type": "cell-based", "details": "Homo sapiens, MCF7, incubation time 72 h, mean ± SD (n = 3)", "experimental": "In vitro cytotoxicity studies of the obtained building blocks and glycoconjugates were carried out on cell lines characterized by the high expression of GLUT transporters and the strongly changed glucose metabolism (strong Warburg effect). […] Cytotoxicity was evaluated using the MTT assay.\nThe human cell line MCF-7 was obtained from collections at the Maria Sklodowska-Curie Memorial Cancer Center and Institute of Oncology, branch in Gliwice, Poland. […] The culture media were purchased from EuroClone and HyClone. Fetal bovine serum (FBS) was delivered by EURx, Poland, and Antibiotic Antimycotic Solution (100×) by Sigma-Aldrich, Germany. The cells were cultured under standard conditions at 37 °C in a humidified atmosphere at 5% CO2.\nThe viability of the cells was determined using an MTT (3-[4,5–dimethylthiazol-2-yl]-2,5-diphenyltetrazolium bromide) test (Sigma-Aldrich). Stock solutions of tested compounds were prepared in DMSO and diluted with the appropriate volumes of the growth medium directly before the experiment. […] The cell cultures were incubated for 24 h at 37 °C in a humidified atmosphere of 5% CO2. Then, the culture medium was removed, replaced with the solution of the tested compounds in medium with varying concentrations, and incubated for further 24 h or 72 h. After that, the medium was removed, and the MTT solution (50 µL, 0.5 mg/mL in PBS) was added. After 3 h of incubation, the MTT solution was removed, and the precipitated formazan was dissolved in DMSO. Finally, the absorbance at the 570 nm wavelength was measured spectrophotometrically with the plate reader. The experiment was conducted in at least three independent iterations with four technical repetitions. The IC50 values were calculated using CalcuSyn software (version 2.0, Biosoft, Cambridge, UK)."}, "[1]": {"biological_target": "T1, β-galactosidase from Aspergillus oryzae (Aspergillus oryzae, UniProt Q2UCU3)", "T1 construct": "purchased Sigma-Aldrich G5160", "T1 sequence (Q2UCU3 19-1005)": "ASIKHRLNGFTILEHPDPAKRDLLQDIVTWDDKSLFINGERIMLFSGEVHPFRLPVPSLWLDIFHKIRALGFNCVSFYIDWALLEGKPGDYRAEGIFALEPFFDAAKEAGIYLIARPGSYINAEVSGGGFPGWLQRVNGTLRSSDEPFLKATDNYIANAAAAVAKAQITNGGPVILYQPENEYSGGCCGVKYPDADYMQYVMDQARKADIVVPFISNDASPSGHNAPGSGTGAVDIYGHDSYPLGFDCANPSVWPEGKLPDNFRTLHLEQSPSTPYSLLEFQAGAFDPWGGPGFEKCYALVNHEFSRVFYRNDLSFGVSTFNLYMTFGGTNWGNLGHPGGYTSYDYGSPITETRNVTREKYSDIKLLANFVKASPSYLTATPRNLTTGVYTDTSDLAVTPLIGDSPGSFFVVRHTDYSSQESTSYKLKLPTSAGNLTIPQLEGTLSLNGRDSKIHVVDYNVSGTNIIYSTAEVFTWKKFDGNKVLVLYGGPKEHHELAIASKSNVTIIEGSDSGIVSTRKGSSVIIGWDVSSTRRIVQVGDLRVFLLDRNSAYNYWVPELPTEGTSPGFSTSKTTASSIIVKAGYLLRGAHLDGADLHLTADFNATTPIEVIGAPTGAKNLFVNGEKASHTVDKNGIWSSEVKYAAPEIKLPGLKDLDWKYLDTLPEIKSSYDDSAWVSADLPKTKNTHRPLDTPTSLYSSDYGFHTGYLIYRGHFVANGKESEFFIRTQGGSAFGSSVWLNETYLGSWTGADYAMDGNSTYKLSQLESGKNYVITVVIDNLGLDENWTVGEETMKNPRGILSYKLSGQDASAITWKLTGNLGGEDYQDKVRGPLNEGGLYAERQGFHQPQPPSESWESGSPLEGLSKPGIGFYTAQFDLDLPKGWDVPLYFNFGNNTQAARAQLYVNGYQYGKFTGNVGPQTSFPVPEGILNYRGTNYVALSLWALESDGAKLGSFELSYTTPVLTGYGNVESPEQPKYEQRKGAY", "assay": "Glycoconjugate stability under the action of β-galactosidase (hydrolysis followed by TLC)", "assay_type": "in vitro ADME", "details": "0.089 unit enzyme, 5 mM substrate, phosphate-citrate buffer pH 4.5, 30 °C, TLC at 10 min to 24 h", "experimental": "As part of the research, the effect of introducing a sulfur atom into the anomeric position of sugar was assessed. […] This was particularly evident for the 8-HQ derivatives 51 and 52, for which the cytotoxic activity was about twice as high as that of their structural counterparts with an anomeric oxygen atom (Figure 3). Unfortunately, an increase in cytotoxicity for glycoconjugates containing anomeric sulfur was observed, both to neoplastic cells and to healthy cells. […] In order to verify this assumption, two galactoconjugates 56 and 64 (being the deprotected counterparts of galactoconjugates 52 and 60) and their two analogs with anomeric oxygen were chosen and subjected to hydrolysis reactions using β-galactosidase from Aspergillus oryzae.\n8-Hydroxyquinoline Glycoconjugates Containing\nSulfur at the Sugar Anomeric Position - Synthesis and Preliminary Evaluation of Their Cytotoxicity […]\nThe following reagents were pipetted into a test tube: 0.4 mL of 20 mM Phosphate-Citrate Buffer (C) and 0.5 mL of the appropriate 10 mM Substrate Solution ( D1-D4), which then thoroughly mixed and equilibrated to 30 °C with a thermoblock. […] The progress of the reactions was monitored by thin-layer chromatography (TLC) in a CHCl3:CH3OH (5:1) eluents system. […]"}, "HCT-116 cells": {"test_system": "HCT-116 cells", "assay": "MTT cytotoxicity assay, HCT-116", "assay_type": "cell-based", "details": "Homo sapiens, incubation time 24 h, mean ± SD (n = 3)"}},
  "data": [
    {"smiles": "OC[C@H]1O[C@@H](SCc2cn(CCCOc3cccc4cccnc34)nn2)[C@H](O)[C@@H](O)[C@H]1O", "note": "[Compound 64]", "values": [
      {"measurement": "IC50", "setting": "MCF-7 cells", "result": "> 800", "unit": "µM"},
      {"measurement": "Hydrolysis in the presence of β-galactosidase", "setting": "[1]", "result": "did not undergo hydrolysis"},
      {"measurement": "IC50", "setting": "HCT-116 cells", "result": "> 800", "unit": "µM"}
    ]}
  ]
}
